Compound: C[C@]1(O)C[C@@H](c2nc(-c3ccc4ccc(-c5ccccc5)nc4c3)c3c(N)nccn32)C1 [Linsitinib]
Assay: relative viability (nuclei count vs DMSO), 5 days (fraction); higher = more cells survive
Outline: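 Only plates meeting two conditions passed: control CV below 25% and at least one doubling. Lung cancer cell lines, kept overnight at 37 °C in 1536-well plates, were pinned with five library-drug doses (not always all listed) √10 apart on vehicle-anchored plates and grown 5 days without medium change. A one-step fix, permeabilisation and Hoechst stain preceded 4× imaging and MetaXpress nuclear counting. Viability equals treated-well nuclei divided by vehicle-well nuclei, as the median over plates.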

Row | Cell Line | relative viability (0.01 µM) | relative viability (0.03162 µM) | relative viability (0.1 µM) | relative viability (0.3162 µM) | relative viability (1 µM) | relative viability (1 µM, anchor plate)
1 | 201T | 0.988 | 0.989 | 1.01 | 0.967 | 0.911 | 1.03
2 | A549 | 0.929 | 0.978 | 0.963 | 0.729 | 0.615 | 0.601
3 | A-427 | 1.02 | 1.11 | 0.985 |  | 0.858 | 1.13
4 | ABC-1 | 0.88 | 0.789 | 0.993 | 0.617 | 0.533 | 0.859
5 | BEN | 0.945 | 0.948 | 0.832 | 0.657 | 0.933 | 0.935
6 | CAL-12T | 1.01 | 0.917 | 0.951 | 0.752 | 0.879 | 0.839
7 | COR-L23 | 0.975 | 1.04 | 1.07 | 0.911 | 0.998 | 0.89
8 | COR-L 105 | 0.884 | 0.864 | 0.875 | 0.709 | 0.761 | 0.96
9 | Calu-6 | 0.946 | 0.892 | 1.01 | 0.862 | 0.857 | 0.96
10 | ChaGo-K-1 | 1.04 | 0.962 | 1.02 | 0.681 | 0.882 | 
11 | EBC-1 | 0.991 | 0.967 | 1.05 | 0.778 | 0.93 | 0.903
12 | EKVX | 0.99 | 0.991 | 0.999 | 0.739 | 0.832 | 1.01
13 | EMC-BAC-2 | 0.922 | 0.984 | 0.931 | 0.725 | 0.602 | 0.833
14 | EPLC-272H | 1.02 | 1.01 | 0.799 |  | 0.879 | 1.19
15 | H3255 | 0.872 | 0.933 | 0.927 | 0.74 | 0.896 | 0.972
16 | HARA | 1.07 | 0.837 | 0.967 | 0.697 | 0.807 | 0.948
17 | HCC-15 | 1.07 | 0.887 | 0.984 | 0.383 | 0.675 | 0.89
18 | HCC-44 | 0.964 | 0.967 | 0.96 | 0.668 | 0.659 | 0.702
19 | HCC-78 | 0.794 | 1.03 | 0.816 | 0.868 | 0.699 | 0.538
20 | HCC-366 | 1 | 0.989 | 0.925 | 0.917 | 0.938 | 0.658
21 | HCC-827 | 1.06 | 1.02 | 1.09 |  | 1.01 | 0.967
22 | HOP-62 | 1 | 1.07 | 1.09 |  | 0.791 | 1.02
23 | IA-LM | 1.01 | 0.983 | 0.824 | 0.802 | 0.646 | 0.619
24 | LC-2-ad | 0.941 | 0.896 | 0.967 | 0.735 | 0.756 | 0.86
25 | LCLC-97TM1 | 0.901 | 1.01 | 0.99 | 0.329 | 0.477 | 0.186
26 | LCLC-103H | 1.01 | 0.89 | 0.976 | 0.823 | 0.879 | 1.06
27 | LK-2 | 0.994 | 1.09 | 0.919 | 0.594 | 0.744 | 0.6

Row | Cell Line | relative viability (0.01 µM) | relative viability (0.03162 µM) | relative viability (0.1 µM) | relative viability (0.3162 µM) | relative viability (1 µM) | relative viability (1 µM, anchor plate)
28 | LOU-NH91 | 0.873 | 0.943 | 0.991 | 1 | 0.801 | 0.942
29 | LU99A | 0.915 | 0.968 | 0.899 | 0.483 | 0.738 | 0.555
30 | LXF-289 | 1.04 | 0.974 | 1.04 | 0.768 | 0.977 | 0.976
31 | NCI-H23 | 1.06 | 0.862 | 0.903 | 0.509 | 0.578 | 0.631
32 | NCI-H322M | 0.954 | 0.993 | 0.95 | 0.814 | 0.701 | 0.95
33 | NCI-H358 | 0.86 | 0.978 | 0.9 | 0.809 | 0.522 | 0.749
34 | NCI-H441 | 0.951 | 0.981 | 0.986 | 0.497 | 0.636 | 0.519
35 | NCI-H460 | 0.966 | 0.927 | 0.977 | 0.872 | 0.949 | 0.789
36 | NCI-H520 | 0.97 | 0.948 | 1.06 |  | 1.02 | 0.951
37 | NCI-H522 | 0.969 | 0.927 | 0.838 | 0.742 | 0.872 | 
38 | NCI-H596 | 1.04 | 0.942 | 0.998 | 0.933 | 0.886 | 1.06
39 | NCI-H647 | 0.968 | 0.881 | 1.03 |  | 0.859 | 1.18
40 | NCI-H650 | 0.889 | 0.996 | 0.875 |  | 0.783 | 0.914
41 | NCI-H661 | 0.926 | 1.09 | 1.01 | 0.853 | 1.04 | 0.63
42 | NCI-H727 | 0.961 | 0.866 | 0.895 | 0.461 | 0.591 | 0.305
43 | NCI-H838 | 0.975 | 0.905 | 0.906 | 0.493 | 0.667 | 1.06
44 | NCI-H1299 | 1.01 | 0.999 | 1.02 | 0.918 | 1.02 | 0.977
45 | NCI-H1355 | 1.02 | 0.984 | 0.947 | 0.787 | 0.615 | 0.848
46 | NCI-H1395 | 0.935 | 0.79 | 1.03 | 0.806 | 0.893 | 1.17
47 | NCI-H1437 | 1.01 | 0.963 | 0.997 | 0.945 | 1.01 | 1.02
48 | NCI-H1563 | 1.03 | 0.924 | 1.09 | 1.3 | 0.93 | 1.22
49 | NCI-H1623 | 0.889 | 0.955 | 0.889 |  | 0.815 | 
50 | NCI-H1648 | 1.11 | 0.972 | 0.868 | 0.345 | 0.8 | 
51 | NCI-H1650 | 0.917 | 0.894 | 0.926 | 0.477 | 0.665 | 
52 | NCI-H1651 | 0.969 | 1 | 0.942 | 0.826 | 0.939 | 1.01
53 | NCI-H1666 | 0.975 | 0.983 | 1.04 | 0.755 | 0.747 | 0.878
54 | NCI-H1703 | 0.881 |  | 0.873 | 0.577 | 0.492 | 0.9

Row | Cell Line | relative viability (0.01 µM) | relative viability (0.03162 µM) | relative viability (0.1 µM) | relative viability (0.3162 µM) | relative viability (1 µM) | relative viability (1 µM, anchor plate)
55 | NCI-H1734 | 1.06 | 1.04 | 0.88 | 0.674 | 0.721 | 0.862
56 | NCI-H1755 | 0.976 | 1.01 | 1.01 | 0.769 | 0.915 | 0.996
57 | NCI-H1792 | 0.932 | 0.897 | 0.712 | 0.455 | 0.33 | 0.571
58 | NCI-H1793 | 0.867 | 0.906 | 0.917 | 0.757 | 0.682 | 0.903
59 | NCI-H1915 | 1.02 | 1.04 | 1.01 | 0.828 | 0.684 | 1.07
60 | NCI-H1944 | 1.03 | 1.08 | 0.949 | 0.579 | 0.535 | 1.2
61 | NCI-H1975 | 0.939 | 0.927 | 0.869 | 0.835 | 0.775 | 0.984
62 | NCI-H1993 | 1.03 | 0.916 | 0.879 | 0.622 | 0.607 | 0.759
63 | NCI-H2009 | 0.974 | 0.994 | 1.06 | 0.669 | 0.979 | 1.18
64 | NCI-H2023 | 0.912 | 0.668 | 0.949 | 0.649 | 0.618 | 0.687
65 | NCI-H2085 | 0.93 | 1 | 1.05 | 0.915 | 0.906 | 0.888
66 | NCI-H2087 | 1.07 | 1.04 | 1.13 | 0.615 | 0.683 | 0.908
67 | NCI-H2126 | 1.01 | 0.971 | 1 | 0.818 | 0.71 | 0.715
68 | NCI-H2170 | 1.02 | 0.962 | 0.939 | 0.746 | 1.02 | 
69 | NCI-H2228 | 0.882 | 0.873 | 0.768 | 0.752 | 0.746 | 0.741
70 | NCI-H2342 | 0.889 | 1.07 | 0.86 | 1.01 | 0.768 | 
71 | NCI-H2347 | 1.09 | 1.19 | 0.981 | 0.805 | 0.942 | 0.935
72 | NCI-H2405 | 0.93 | 0.966 | 1 | 0.821 | 0.678 | 0.891
73 | NCI-H3122 | 0.99 | 0.947 | 1 | 0.575 | 1.02 | 1.01
74 | PC-3 [JPC-3] | 1.04 | 1.06 | 1.1 | 0.947 | 0.916 | 0.949
75 | PC-14 | 0.963 | 0.929 | 0.981 | 0.895 | 0.867 | 0.959
76 | RERF-LC-KJ | 1 | 1.01 | 0.949 | 0.682 | 0.871 | 0.878
77 | SK-LU-1 | 1.01 | 0.859 | 1.03 | 0.6 | 0.967 | 0.999
78 | SK-MES-1 | 0.962 | 1.01 | 1.01 | 0.811 | 0.874 | 1.05
79 | SW 900 | 0.885 | 0.986 | 0.862 | 0.538 | 0.477 | 
80 | SW 1573 | 1.04 | 1.01 | 0.98 | 0.796 | 0.723 | 0.801

Reference: the supplement of paper PMC10307832
